Assay results taken from paper PMC10045534, “Preparation and Evaluation of 6-Gingerol Derivatives as Novel Antioxidants and Antiplatelet Agents” (Antioxidants, 2023).

Key:
COX-1 enzyme = target: T1, COX-1 enzyme (Ovis aries, UniProt P05979); test: COX-1 inhibitor screening kit, fluorometric (BioVision K548-100); assay type: biochemical; settings: for LLE(COX-1): LLE = pIC50 − logPpredicted; for IC50: mean ± SEM, n = 2
T1 construct: purchased BioVision (via VWR International Kft.) K548-100
T1 sequence (P05979 25-600): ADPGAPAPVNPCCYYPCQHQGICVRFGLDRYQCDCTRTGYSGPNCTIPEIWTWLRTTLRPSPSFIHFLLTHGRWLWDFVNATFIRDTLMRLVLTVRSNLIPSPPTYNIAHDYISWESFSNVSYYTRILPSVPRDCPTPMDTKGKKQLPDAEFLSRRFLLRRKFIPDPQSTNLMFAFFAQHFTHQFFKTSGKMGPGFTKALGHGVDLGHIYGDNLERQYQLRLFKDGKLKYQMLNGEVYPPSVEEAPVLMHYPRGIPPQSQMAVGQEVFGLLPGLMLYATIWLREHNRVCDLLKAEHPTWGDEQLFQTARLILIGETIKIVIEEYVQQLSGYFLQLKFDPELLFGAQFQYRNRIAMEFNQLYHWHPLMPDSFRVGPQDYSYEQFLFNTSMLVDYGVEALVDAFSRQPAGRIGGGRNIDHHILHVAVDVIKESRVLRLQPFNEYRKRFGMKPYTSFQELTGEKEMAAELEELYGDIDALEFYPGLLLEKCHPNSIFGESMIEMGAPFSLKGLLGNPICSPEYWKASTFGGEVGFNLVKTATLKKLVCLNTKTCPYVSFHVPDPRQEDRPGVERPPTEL
Experimental: COX-1 inhibitory activity was tested based on the fluorometric method as described in BioVision’s COX-1 inhibitor screening kit leafkit (K548-100, BioVision, CA, USA). Sample solutions were prepared by dissolving in DMSO and subsequently buffer, to get desired concentrations. In a 96-well white plate (655101, F-bottom, Grenier bio-one, Germany), 80 µL reaction mix (containing 76 µL assay buffer, 1 µL COX Probe, 2 µL COX cofactor, and 1 µL COX-1 enzyme) was added to 10 µL sample solution, DMSO and assay buffer to get test wells assigned for sample screen (S), negative control (N) and blank, respectively. An aliquot of 10 µL of arachidonic/NaOH solution was added to each well using a multi-channel pipette to initiate the reaction at the same time, and the fluorescence of each well was measured kinetically at Ex/Em 550/610 nm, at 25OC for 10 min using a FluoStar Optima plate reader (BMG Labtech, Ortenberg, Germany). The COX inhibitory activity of SC560, a standard inhibitor, was also determined.
The change in fluorescence between two points, T1 and T2 were determined, and relative inhibition was calculated according to the following equation:% Inhibition = (ΔN − ΔS)/ΔN × 100 (1) where N is the absorbance of the negative control, and S is that of the sample.
Dose-effect studies on the compounds were used to determine the concentration that inhibits 50% of the enzyme activity. The sigmoidal dose–response model was obtained by using the software GraphPad Prism 8.0 (La Jolla, CA, USA), and these were used to determine the IC50 values of the compounds.

[1] = Oxygen radical absorbance capacity (ORAC); settings: 1 µM sample; mean ± SEM, n = 3
Experimental: AAPH ((2,20-Azobis(2-methyl-propionamidine) dihydrochloride) free radical and Trolox standard were purchased from Sigma-Aldrich Hungary. Fluorescein was purchased from Fluka Analytical, Tokyo, Japan. ORAC assay was carried out In a 96-well microplate based on the method from previous study. Briefly, 20 µL of the samples (1 µM final concentration, dissolved in phosphate buffer, pH = 7.4, containing 1% MeOH) were mixed with 60 µL of AAPH (12 mM final concentration, dissolved in phosphate buffer, pH = 7.4) and 120 µL of fluorescein solution (70 nM final concentration, dissolved in phosphate buffer), then the fluorescence was measured (excitation at λ = 485 nm, and emission at λ = 520 nm) through 3 h with 1.5-min cycle intervals with a BMG Labtech FluoStar Optima plate-reader. All experiments were carried out in triplicate, and Trolox was used as standard. The antioxidant capacity is expressed as Trolox Equivalent (TE), as calculated using GraphPad Prism 8.0 (La Jolla, CA, USA).

[2] = Peroxynitrite scavenging (pyrogallol red); settings: % inhibition at 500 µM; mean ± SEM, n = 3
Experimental: Peroxynitrite was synthesised by a continuous flow system using syringe pumps as published previously. Briefly, an acidic solution of hydrogen peroxide (0.6 M H2O2, 0.7 M HCl) was pumped to a junction alongside of sodium nitrite solution (0.6 M) at a flow rate of 1.5 mL/min. After passing 10 cm of tubing, it was mixed with a sodium hydroxide solution (1.5 M), also pumped at 1.5 mL/min. The resulting peroxynitrite solution was a bright yellow colour. The tubing around the reaction was submerged in ice. The concentration of the solution was determined by spectrophotometry and was adjusted to 30 mM with 0.1 M NaOH solution.
In a 96-well microplate 245 µL of pyrogallol red (100 µM final concentration, dissolved in 0.1 M glycine buffer) was mixed with 50 µL of sample (0.5 mM final concentration, dissolved in DMSO) and 5 µL ONOO^– solution (500 µM final concentration, freshly prepared). After mixing and keeping it at room temperature for 30 min the absorbance was measured at 550 nm using a FluoStar Optima plate reader (software version 2.20R2, BMG Labtech, Ortenberg, Germany).

xanthine oxidase (XO) = target: T2, xanthine oxidase (XO) (Bos taurus, UniProt P80457); test: Xanthine oxidase inhibition, spectrophotometric; assay type: biochemical; settings: read-out: XO Inhibition (%)
T2 construct: purchased Sigma (Merck KGaA)
T2 sequence (P80457 2-1332 limits assumed): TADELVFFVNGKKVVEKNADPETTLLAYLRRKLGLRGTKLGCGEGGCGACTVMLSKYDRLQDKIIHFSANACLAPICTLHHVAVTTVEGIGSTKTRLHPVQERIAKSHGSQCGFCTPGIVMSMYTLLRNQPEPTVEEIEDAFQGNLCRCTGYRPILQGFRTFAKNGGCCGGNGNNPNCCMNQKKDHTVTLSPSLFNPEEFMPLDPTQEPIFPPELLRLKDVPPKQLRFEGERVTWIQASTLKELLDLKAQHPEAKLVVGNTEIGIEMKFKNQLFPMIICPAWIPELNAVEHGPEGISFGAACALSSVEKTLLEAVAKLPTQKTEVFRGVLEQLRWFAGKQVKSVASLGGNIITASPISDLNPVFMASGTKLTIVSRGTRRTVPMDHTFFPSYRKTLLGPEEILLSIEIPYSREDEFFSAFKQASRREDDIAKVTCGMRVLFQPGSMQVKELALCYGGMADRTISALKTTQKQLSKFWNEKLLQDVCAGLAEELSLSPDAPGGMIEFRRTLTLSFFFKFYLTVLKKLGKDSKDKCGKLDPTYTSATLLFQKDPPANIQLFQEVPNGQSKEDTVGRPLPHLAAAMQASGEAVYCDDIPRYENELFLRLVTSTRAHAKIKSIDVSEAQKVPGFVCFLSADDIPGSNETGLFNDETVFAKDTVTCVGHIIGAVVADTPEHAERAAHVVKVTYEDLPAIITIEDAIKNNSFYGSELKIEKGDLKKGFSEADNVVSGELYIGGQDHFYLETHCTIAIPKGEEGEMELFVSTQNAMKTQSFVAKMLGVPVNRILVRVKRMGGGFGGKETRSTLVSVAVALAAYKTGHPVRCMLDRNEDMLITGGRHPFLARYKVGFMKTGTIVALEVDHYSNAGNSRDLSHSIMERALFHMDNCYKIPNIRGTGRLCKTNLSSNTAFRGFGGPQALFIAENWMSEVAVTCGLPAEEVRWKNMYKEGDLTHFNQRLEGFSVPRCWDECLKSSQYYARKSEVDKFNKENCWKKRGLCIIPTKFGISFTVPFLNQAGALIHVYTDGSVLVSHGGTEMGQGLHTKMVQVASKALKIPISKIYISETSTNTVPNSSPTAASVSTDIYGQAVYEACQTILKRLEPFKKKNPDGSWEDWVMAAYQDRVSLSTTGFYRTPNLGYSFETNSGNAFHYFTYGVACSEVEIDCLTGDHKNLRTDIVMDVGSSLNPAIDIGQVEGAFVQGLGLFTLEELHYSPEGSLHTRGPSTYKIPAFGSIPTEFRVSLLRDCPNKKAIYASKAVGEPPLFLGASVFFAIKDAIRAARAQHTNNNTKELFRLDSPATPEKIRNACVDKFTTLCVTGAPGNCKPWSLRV
Experimental: The xanthine oxidase (XO) inhibitory activity of the compounds was determined using continuous spectrophotometric rate based on a modified protocol of Sigma. […]. In a 96-well plate, the final reaction mixture consisted of 10 µL of sample (dissolved in DMSO, […] stock solution, 100 µM final), 100 µL of xanthine solution (0.15 mM, pH = 7.4), 140 µL of buffer (potassium phosphate, pH = 7.5) and 50 µL of XO (0.2 units/mL). When measuring the enzyme activity, control buffer was used in place of the sample. Allopurinol was applied as a control. The reaction was initiated by the automatic addition of 50 µL of XO solution. The absorbance of XO-induced uric acid production from xanthine was measured at 290 nm for 3 min in a 96-well plate on a BMG Labtech FluoStar Optima plate reader. The inhibitory percentage values were calculated by using Graph Pad Prism 8.0 (La Jolla, CA, USA).

Row | SMILES | LLE(COX-1) (COX-1 enzyme) | IC50 (COX-1 enzyme) [µM] | ORAC TE [1] | ONOO^– Scavenging (%) [2] [%] | inhibition at 100 µM (xanthine oxidase (XO)) [%]
1 | CCCCC[C@H](O)CC(=O)CCc1ccc(O)c(OC)c1 [Compound 1, (S)-5-hydroxy-1-(4-hydroxy-3-methoxyphenyl)decan-3-one] | 1.30 | 62.5 ± 23.8 | 1.30 ± 0.04 Trolox equivalents (TE) | <5.0 | < 5
2 | CCCCC/C=C/C(=O)CCc1ccc(O)c(OC)c1 [Compound 2, 6-shogaol] | 0.81 | 9.8 ± 0.6 | 1.10 ± 0.03 Trolox equivalents (TE) | <5.0 | < 5
3 | CCCCCCCC(=O)CCc1ccc(O)c(OC)c1 [Compound 3, 4,5-dihydro-6-shogaol] | 1.26 | 4.4 ± 0.2 | 1.36 ± 0.02 Trolox equivalents (TE) | <5.0 | < 5
4 | CCCCCCCC(CCc1ccc(O)c(OC)c1)=NO [Compound 4, 1-(4-hydroxy-3-methoxyphenyl)decan-3-one oxime] | 0.48 | 5.2 ± 0.3 | 0.47 ± 0.09 Trolox equivalents (TE) | <5.0 | 10.6 ± 2.3
5 | CCCCC[C@H](O)C[C@H](O)CCc1ccc(O)c(OC)c1 [Compound 5, (3R,5S)-1-(4-hydroxy-3-methoxyphenyl)decane-3,5-diol] | 1.27 | 54.3 ± 6.5 | 2.30 ± 0.05 Trolox equivalents (TE) | <5.0 | < 5
6 | CCCCC[C@H](O)C[C@@H](O)CCc1ccc(O)c(OC)c1 [Compound 6, (3S,5S)-1-(4-hydroxy-3-methoxyphenyl)decane-3,5-diol] | 1.12 | 76.2 ± 0.3 | 1.12 ± 0.03 Trolox equivalents (TE) | <5.0 | < 5
7 | CCCCCc1cc(CCc2ccc(O)c(OC)c2)[nH]n1 [Compound 14, 2-methoxy-4-(2-(3-pentyl-1H-pyrazol-5-yl)ethyl)phenol] | 0.74 | 3.6 ± 0.2 | 0.44 ± 0.07 Trolox equivalents (TE) | <5.0 | 10.1 ± 1.65
8 | CCCCCc1cc(CCc2ccc(O)cc2)[nH]n1 [Compound 15, 4-(2-(3-pentyl-1H-pyrazol-5-yl)ethyl)phenol] | – | > 200 | 1.00 ± 0.02 Trolox equivalents (TE) | <5.0 | 12.3 ± 0.9
9 | CCCCCc1cc(/C=C/c2ccc(O)cc2)[nH]n1 [Compound 16, (E)-4-(2-(3-pentyl-1H-pyrazol-5-yl)vinyl)phenol] | −0.04 | 17.5 ± 0.1 | 2.88 ± 0.16 Trolox equivalents (TE) | <5.0 | 16 ± 4.05
10 | CCCCCc1cc(/C=C/c2ccc(O)c(OC)c2)on1 [Compound 17, (E)-2-methoxy-4-(2-(3-pentylisoxazol-5-yl)vinyl)phenol] | 0.83 | 5.85 ± 0.04 | 0.77 ± 0.20 Trolox equivalents (TE) | 38.40 ± 3.05 | < 5
11 | CCCCCc1cc(/C=C/c2ccc(O)cc2)on1 [Compound 18, (E)-4-(2-(3-pentylisoxazol-5-yl)vinyl)phenol] | – | > 200 | 1.76 ± 0.06 Trolox equivalents (TE) | 5.64 ± 1.31 | < 5
12 | CCCCCCCNC(=O)CCc1ccc(O)c(OC)c1 [Compound 22] | – | > 100 | 1.62 ± 0.004 Trolox equivalents (TE) | <5.0 | < 5
